Measured values published in US20210115509A1, “BIOMARKER FOR IDENTIFYING SPECIFIC EXPOSURE TO KETONES AND METHOD OF IDENTIFICATION USING THE SAME” (KOREA INSTITUTE OF SCIENCE AND TECHNOLOGY, priority 2019, published 2021).

What was measured:
[1] = tested on: BEAS-2B human bronchial epithelial cell line; experiment: Gene expression change by high-throughput RNA sequencing (NextSeq 500) in ketone-exposed BEAS-2B cells; format: cell-based
Method: RNA was extracted from cell samples of ketone-exposed and non-ketone-exposed groups using a TRIzol reagent (Life Technologies, USA) in accordance with the manufacturer's directions to isolate total RNA and the total RNA was purified using a RNeasy mini kit (Qiagen, USA). The concentration of each total RNA sample was determined by a ND-2000 spectrophotometer (Thermo Inc., DE, USA) as a spectrophotometer and Agilent 2100 Bioanalyzer (Agilent Technologies, USA).
The establishment of libraries from the total RNA obtained in Example 2-1 in the experimental group and the normal control group exposed to the ketones was carried out using a QuantSeq 3′ mRNA-Seq Library Prep Kit (Lexogen, Inc., Austria) in accordance with the manufacturer's directions. 500 ng of the total RNA was hybridized with an oligo-dT primer including an Illumina-compatible sequence at the 5′ end of RNA, followed by reverse transcription. After degradation of the RNA template, a second strand was synthesized using a random primer including an Illumina-compatible linker sequence at the 5′ end thereof. Double-stranded libraries were purified using magnetic beads to remove all reaction components. The library was amplified in order to add the entire adapter sequence required for cluster production, and the completed cDNA library was purified from the PCR components.
Sequencing was performed by high-throughput sequencing as single-end 75 sequencing using a NextSeq 500 (IIlumina, Inc., USA). Read count (RC) data was processed based on the quantile normalization method using EdgeR in R (R development Core Team, 2016) using Bioconductor (Gentleman et al., 2004). Gene classification was based on searches performed on DAVID (http://david.abcc.ncifcrf.gov/) and the Medline database (http://www.ncbi.nlm.nih.gov/).
The extracted data were analyzed through normalization using Agilent GeneSpring GX 12.6.1 (Agilent technologies, CA, USA) to analyze the expression pattern of each gene.

[2] = tested on: BEAS-2B human bronchial epithelial cell line; experiment: MTT assay, cytotoxicity of ketone compounds in BEAS-2B cell line; format: cell-based
Method: BEAS-2B (Korean Cell Line Bank), a human bronchial epithelial cell line, was cultured using RPMI 1640 medium (Gibco, USA) supplemented with 10% FBS until the cells grew to about a confluence of 70 to 80% in a 100 mm dish.
Among ketones belonging to mVOCs (microbial volatile organic compounds) exposed to the environment, acetone, 2-butanone, 2-pentanone, 2-hexanone and 2-heptanone were selected, and the chemicals were dissolved in filtered distilled water (DW). A vehicle concentration was set to 0.1% or less in all experiments.
MTT assay using a BEAS-2B cell line was performed in accordance with the method of Mossman et al. (J. Immunol. Methods, 65, 55-63, 1983).
Specifically, the cells were seeded at a density of 3.5×10^4 cells/well in a 24-well plate and treated with the five ketone compounds dissolved in filtered distilled water, prepared in Example 1-2. After 48 hours, the result was mixed with 5 mg/ml of MTT (3-4,5-dimethylthiazol-2,5-diphenyltetrazolium bromide), added to a tube and incubated at 37° C. for 3 hours. Then, the medium was removed, the formed formazan crystal was dissolved in 500 μl of DMSO, and then 100 μl of the solution was transferred to a 96-well plate to measure an OD (optical density) value at 540 nm.

[3] = IC5 conc.: Acetone 5.38, 2-Butanone 22.27, 2-Pentanone 5.24, 2-Hexanone 14.82, 2-Heptanone 5.05 mM
[4] = IC20 conc.: Acetone 71.90, 2-Butanone 106.21, 2-Pentanone 39.38, 2-Hexanone 52.51, 2-Heptanone 20.22 mM

CCCC(C)=O [2-Pentanone, 2-pentanone]
Fold change ADRA2A (NM_000681) [1, 3]: 0.179
Fold change ATRNL1 (NR_074088) [1, 3]: 4.158
Fold change C12orf79 (NR_046159) [1, 3]: 0.213
Fold change C14orf80 (NR_046159) [1, 3]: 0.354
Fold change CALML3 (NM_001286399) [1, 3]: 0.354
Fold change CCDC184 (NM_001013635) [1, 3]: 4.501
Fold change CD37 (NM_001040031) [1, 3]: 2.028
Fold change CDHR1 (NM_001171971) [1, 3]: 0.216
Fold change CHL1 (NM_001253387) [1, 3]: 0.335
Fold change COL4A3 (NM_000091) [1, 3]: 2.229
Fold change CRLF2 (NM_022148) [1, 3]: 0.355
Fold change CSF3R (NM_172313) [1, 3]: 0.354
Fold change DNMBP-AS1 (NR_024130) [1, 3]: 2.406
Fold change EGR1 (NM_001964) [1, 3]: 0.419
Fold change GNA14 (NM_004297) [1, 3]: 8.261
Fold change LOC728752 (NR_036504) [1, 3]: 7.322
Fold change PAX8 (NM_003466) [1, 3]: 2.723
Fold change PRRT3-AS1 (NR_046734) [1, 3]: 2.817
Fold change RBP3 (NM_002900) [1, 3]: 0.354
Fold change SEPT14 (NM_207366) [1, 3]: 0.214
Fold change SERPINA12 (NM_001304461) [1, 3]: 0.354
Fold change SLC13A4 (NM_012450) [1, 3]: 8.995
Fold change SPOCK2 (NM_001244950) [1, 3]: 4.031
Fold change TSPAN1 (NM_005727) [1, 3]: 4.281
Fold change USP12-AB1 (NR_046647) [1, 3]: 7.329
Fold change VIPR†-AS1 (NR_046654) [1, 3]: 0.354
Fold change XIRP1 (NM_001198621) [1, 3]: 0.354
Fold change ZFP69B (NM_023070) [1, 3]: 2.472
Fold change ZNF432 (NM_014650) [1, 3]: 4.086
Fold change ZNF487 (NR_026693) [1, 3]: 0.354
Fold change ADRA2A (NM_000681) [1, 4]: 0.184
Fold change ATRNL1 (NR_074088) [1, 4]: 2.665
Fold change C12orf79 (NR_046159) [1, 4]: 0.216
Fold change C14orf80 (NR_046159) [1, 4]: 0.356
Fold change CALML3 (NM_001286399) [1, 4]: 0.356
Fold change CCDC184 (NM_001013635) [1, 4]: 2.387
Fold change CD37 (NM_001040031) [1, 4]: 3.272
Fold change CDHR1 (NM_001171971) [1, 4]: 0.223
Fold change CHL1 (NM_001253387) [1, 4]: 0.273
Fold change COL4A3 (NM_000091) [1, 4]: 5.033
Fold change CRLF2 (NM_022148) [1, 4]: 0.359
Fold change CSF3R (NM_172313) [1, 4]: 0.356
Fold change DNMBP-AS1 (NR_024130) [1, 4]: 8.289
Fold change EGR1 (NM_001964) [1, 4]: 0.332
Fold change GNA14 (NM_004297) [1, 4]: 6.776
Fold change LOC728752 (NR_036504) [1, 4]: 5.683
Fold change PAX8 (NM_003466) [1, 4]: 2.277
Fold change PRRT3-AS1 (NR_046734) [1, 4]: 3.902
Fold change RBP3 (NM_002900) [1, 4]: 0.356
Fold change SEPT14 (NM_207366) [1, 4]: 0.218
Fold change SERPINA12 (NM_001304461) [1, 4]: 0.356
Fold change SLC13A4 (NM_012450) [1, 4]: 2.153
Fold change SPOCK2 (NM_001244950) [1, 4]: 2.181
Fold change TSPAN1 (NM_005727) [1, 4]: 3.938
Fold change USP12-AB1 (NR_046647) [1, 4]: 2.362
Fold change VIPR†-AS1 (NR_046654) [1, 4]: 0.356
Fold change XIRP1 (NM_001198621) [1, 4]: 0.356
Fold change ZFP69B (NM_023070) [1, 4]: 2.299
Fold change ZNF432 (NM_014650) [1, 4]: 5.290
Fold change ZNF487 (NR_026693) [1, 4]: 0.356
concentration (105) providing a survival rate (viability) of 95% ([2]; human, 48 h): 5.24 mM
concentration (1020) providing a survival rate (viability) of 80% ([2]; human, 48 h): 39.33 mM

CC(C)=O [Acetone, acetone]
Fold change ADRA2A (NM_000681) [1, 3]: 0.179
Fold change ATRNL1 (NR_074088) [1, 3]: 3.000
Fold change C12orf79 (NR_046159) [1, 3]: 0.213
Fold change C14orf80 (NR_046159) [1, 3]: 0.354
Fold change CALML3 (NM_001286399) [1, 3]: 0.354
Fold change CCDC184 (NM_001013635) [1, 3]: 12.166
Fold change CD37 (NM_001040031) [1, 3]: 2.781
Fold change CDHR1 (NM_001171971) [1, 3]: 0.409
Fold change CHL1 (NM_001253387) [1, 3]: 0.224
Fold change COL4A3 (NM_000091) [1, 3]: 4.046
Fold change CRLF2 (NM_022148) [1, 3]: 0.355
Fold change CSF3R (NM_172313) [1, 3]: 0.354
Fold change DNMBP-AS1 (NR_024130) [1, 3]: 2.455
Fold change EGR1 (NM_001964) [1, 3]: 0.422
Fold change GNA14 (NM_004297) [1, 3]: 5.492
Fold change LOC728752 (NR_036504) [1, 3]: 4.554
Fold change PAX8 (NM_003466) [1, 3]: 2.753
Fold change PRRT3-AS1 (NR_046734) [1, 3]: 2.261
Fold change RBP3 (NM_002900) [1, 3]: 0.354
Fold change SEPT14 (NM_207366) [1, 3]: 0.214
Fold change SERPINA12 (NM_001304461) [1, 3]: 0.354
Fold change SLC13A4 (NM_012450) [1, 3]: 10.528
Fold change SPOCK2 (NM_001244950) [1, 3]: 5.291
Fold change TSPAN1 (NM_005727) [1, 3]: 5.935
Fold change USP12-AB1 (NR_046647) [1, 3]: 3.620
Fold change VIPR†-AS1 (NR_046654) [1, 3]: 0.354
Fold change XIRP1 (NM_001198621) [1, 3]: 0.354
Fold change ZFP69B (NM_023070) [1, 3]: 2.708
Fold change ZNF432 (NM_014650) [1, 3]: 4.647
Fold change ZNF487 (NR_026693) [1, 3]: 0.354
Fold change ADRA2A (NM_000681) [1, 4]: 0.355
Fold change ATRNL1 (NR_074088) [1, 4]: 2.751
Fold change C12orf79 (NR_046159) [1, 4]: 0.213
Fold change C14orf80 (NR_046159) [1, 4]: 0.354
Fold change CALML3 (NM_001286399) [1, 4]: 0.354
Fold change CCDC184 (NM_001013635) [1, 4]: 4.927
Fold change CD37 (NM_001040031) [1, 4]: 2.526
Fold change CDHR1 (NM_001171971) [1, 4]: 0.429
Fold change CHL1 (NM_001253387) [1, 4]: 0.360
Fold change COL4A3 (NM_000091) [1, 4]: 2.490
Fold change CRLF2 (NM_022148) [1, 4]: 0.357
Fold change CSF3R (NM_172313) [1, 4]: 0.358
Fold change DNMBP-AS1 (NR_024130) [1, 4]: 5.285
Fold change EGR1 (NM_001964) [1, 4]: 0.437
Fold change GNA14 (NM_004297) [1, 4]: 2.289
Fold change LOC728752 (NR_036504) [1, 4]: 4.939
Fold change PAX8 (NM_003466) [1, 4]: 5.800
Fold change PRRT3-AS1 (NR_046734) [1, 4]: 2.061
Fold change RBP3 (NM_002900) [1, 4]: 0.376
Fold change SEPT14 (NM_207366) [1, 4]: 0.214
Fold change SERPINA12 (NM_001304461) [1, 4]: 0.354
Fold change SLC13A4 (NM_012450) [1, 4]: 12.386
Fold change SPOCK2 (NM_001244950) [1, 4]: 5.054
Fold change TSPAN1 (NM_005727) [1, 4]: 2.949
Fold change USP12-AB1 (NR_046647) [1, 4]: 6.910
Fold change VIPR†-AS1 (NR_046654) [1, 4]: 0.354
Fold change XIRP1 (NM_001198621) [1, 4]: 0.354
Fold change ZFP69B (NM_023070) [1, 4]: 4.454
Fold change ZNF432 (NM_014650) [1, 4]: 5.319
Fold change ZNF487 (NR_026693) [1, 4]: 0.354
concentration (105) providing a survival rate (viability) of 95% ([2]; BEAS-2B, 48 hours, MTT): 5.38 mM
concentration (1020) providing a survival rate (viability) of 80% ([2]; BEAS-2B, 48 hours, MTT): 71.90 mM
